# Laboratory results: patent US11590087B2, “Cannabidiol-type cannabinoid compound” (GW Research Limited, priority 2019, dated 2023)
# Columns and labels:
# [1] = system: tonic hind limb extensor convulsions; assay: Maximal electroshock seizure threshold (MEST) test in the mouse; conditions: for % change from vehicle (CC50) / CC50 ± SEM: mouse
# Protocol: The efficacy of 6-OH CBDV was tested in a mouse model of generalised seizure, the maximal electroshock seizure threshold (MEST) test.
# The maximal electroshock seizure threshold (MEST) test is widely utilized preclinically to evaluate pro- or anti-convulsant properties of test compounds (Loscher et al., 1991).
# In the MEST test the ability of a drug to alter the seizure threshold current required to induce hind limb tonic extensor convulsions is measured according to an “up and down” method of shock titration (Kimball et al., 1957). An increase in seizure threshold is indicative of anti-convulsant effect.
# The ability of a test compound to alter the stimulus intensity, expressed as current (mA), required to induce the presence of tonic hind limb extensor convulsions, is assessed in the MEST.
# Naïve mice were acclimatised to the procedure room in their home cages for up to 7 days, with food and water available ad libitum.
# All animals were weighed at the beginning of the study and randomly assigned to treatment groups based on a mean distribution of body weight across groups.
# The first animal within a treatment group was given a shock at the expected or estimated CC50 current. For subsequent animals, the current was lowered or raised depending on the convulsions outcome from the preceding animal.
# Data generated from each treatment group were used to calculate the CC50±SEM values for the treatment group.
# Vehicle: (5% ethanol, 5% solutol, 90% Saline) was prepared as follows: 2 mL of ethanol, 2 mL of solutol were warmed to 60° C., in 36 mL of saline (1:1:18).
# The test compound, alpha 6-OH CBDV was prepared according to the method described in Example 1. 6-OH CBDV was administered at 3, 10 and 30 mg/kg (i.p.) in a 1:1:18 ethanol:soluto:0.9% saline formulation.
# 6-OH CBDV effects were also calculated as percentage change in CC50 from the vehicle control group.
# Significant difference between drug-treated animals and controls were assessed according to Litchfield and Wilcoxon (1949).
# [2] = system: tonic hind limb extensor seizure; assay: Supramaximal electroshock seizure (MES) test in the mouse; assay type: in vivo
# Text: The supramaximal electroshock seizure ([…]) test is widely utilized preclinically to evaluate anti-convulsant properties of molecules and standard anti-epileptic drugs (Loscher et al., 1991).
# The MES test is a very stringent model in which mice receive a predetermined high-level electrical stimulus of sufficient intensity to reliably produce tonic hindlimb extensor seizures in 100% of control animals. As such the MES test is a rigorous evaluation of anticonvulsant activity (Swinyard, 1985).
# Animals were dosed i.p. according to treatment group.
# The vehicle (10 ml/kg i.p. 60 min pre-treatment time) was 1:1:18 vehicle 5% ethanol, 5% kolliphor EL, 90% saline.
# The test compound, 6-OH CBDV was administered at doses of 3, 10, 30, and 100 mg/kg given at 10 ml/kg i.p. 60 min pre-treatment time.
# The positive control valproate was used at 250 mg/kg (10 ml/kg i.p. 30 min pre-treatment time).
# Induction of seizure is measured as an all-or-nothing effect scored as either present (+) or absent (0) for each animal.
# Data was collected by an observer unaware of the treatment for each animal and was expressed as the number of +'s or 0's for each treatment group.
# The percentage inhibition of relevant vehicle treated group (the protection relative to vehicle treated controls) was then generated.
# Significant differences between individual treatment groups and vehicle-treated groups were assessed using 2-tailed Fisher's Exact Probability test (p<0.05 considered significant).
# [3] = 3 mg/kg i.p., 15 min pre-treatment
# [4] = 10 mg/kg i.p., 15 min pre-treatment
# [5] = 30 mg/kg i.p., 30 min pre-treatment
# [6] = 250 mg/kg i.p., 30 min pre-treatment
structure (smiles),measurement,setting,value
"CN1C(=O)CN=C(c2ccccc2)c2cc(Cl)ccc21 [Diazepam, diazepam, reference compound]",% change from vehicle (CC50),"[1]; 2.5 mg/kg i.p., 30 min pre-treatment",124%
"C=C(C)[C@@H]1CC(O)C(C)=C[C@H]1c1c(O)cc(CCC)cc1O (stereo partly drawn) [6-OH CBDV, Alpha 6-hydroxy cannabidivarin]",% change from vehicle,"[2]; 3 mg/kg i.p., 60 min pre-treatment",20%
same,% change from vehicle,"[2]; 10 mg/kg i.p., 60 min pre-treatment",20%
same,% change from vehicle,"[2]; 30 mg/kg i.p., 60 min pre-treatment",100%
same,Induction of seizure (present/absent),"[2]; 30 mg/kg i.p., 60 minutes before the test",enabled all mice to withstand seizures
same,% change from vehicle,"[2]; 100 mg/kg i.p., 60 min pre-treatment",100%
same,Induction of seizure (present/absent),"[2]; 100 mg/kg i.p., 60 minutes before the test",enabled all mice to withstand seizures
same,% change from vehicle (CC50),[1]; [3],111%
same,CC50 ± SEM,[1]; [3],54.2 ± 1.4 mA
same,% change from vehicle (CC50),[1]; [4],147%
same,CC50 ± SEM,[1]; [4],63.5 ± 3.4 mA
same,% change from vehicle (CC50),[1]; [5],260%
same,CC50 ± SEM,[1]; [5],92.5 ± 0.4 mA
same,Effect on MEST (seizure threshold) across doses,"[1]; mouse, 3, 10 and 30 mg/kg i.p.",dose-related increase in MEST
"CCCC(CCC)C(=O)[O-].[Na+] [Valproate, sodium valproate, reference compound]",% change from vehicle,[2]; [6],100%
same,Induction of seizure (present/absent),"[2]; 250 mg/kg i.p., 30 minutes before the test",all animals were scored as not having a seizure
same,% change from vehicle (CC50),[1]; [6],997%
